Activity calls are given as the source filed them. The rule behind the calls is not given here.
Tests used:
[1] = Cytotoxicity against human M193 cells assessed as reduction in cell viability at 20 uM measured after 72 hrs by Celltiter-Glo luminescent assay relative to control; type: functional
[2] = Cytotoxicity against human M307 cells assessed as reduction in cell viability measured after 72 hrs by Celltiter-Glo luminescent assay; type: functional, cell-based
[3] = Cytotoxicity against human M133 cells assessed as reduction in cell viability measured after 72 hrs by Celltiter-Glo luminescent assay; type: functional, cell-based
[4] = Cytotoxicity against human M189 cells assessed as reduction in cell viability measured after 72 hrs by Celltiter-Glo luminescent assay; type: functional, cell-based
[5] = Cytotoxicity against human SHM20A2 cells assessed as reduction in cell viability measured after 72 hrs by Celltiter-Glo luminescent assay; type: functional, cell-based
[6] = Cytotoxicity against human M187 cells assessed as reduction in cell viability measured after 72 hrs by Celltiter-Glo luminescent assay; type: functional, cell-based
[7] = Cytotoxicity against human M144 cells assessed as reduction in cell viability measured after 72 hrs by Celltiter-Glo luminescent assay; type: functional, cell-based
[8] = Cytotoxicity against human M24 cells assessed as reduction in cell viability measured after 72 hrs by Celltiter-Glo luminescent assay; type: functional, cell-based; conditions: M24, 72 h
M34 [9] = test: Cytotoxicity against human M34 cells assessed as reduction in cell viability measured after 72 hrs by Celltiter-Glo luminescent assay; type: functional, cell-based; conditions: M34, 72 h
[10] = Cytotoxicity against human M77 cells assessed as reduction in cell viability measured after 72 hrs by Celltiter-Glo luminescent assay; type: functional, cell-based
[11] = Cytotoxicity against human M7 cells assessed as reduction in cell viability measured after 72 hrs by Celltiter-Glo luminescent assay; type: functional, cell-based
[12] = Cytotoxicity against human M1 cells assessed as reduction in cell viability measured after 72 hrs by Celltiter-Glo luminescent assay; type: functional, cell-based
[13] = Cytotoxicity against human M433 cells assessed as reduction in cell viability measured after 72 hrs by Celltiter-Glo luminescent assay; type: functional, cell-based
[14] = Cytotoxicity against human M2025 cells assessed as reduction in cell viability measured after 72 hrs by Celltiter-Glo luminescent assay; type: functional, cell-based
[15] = Cytotoxicity against human M221 cells assessed as reduction in cell viability measured after 72 hrs by Celltiter-Glo luminescent assay; type: functional, cell-based
[16] = Cytotoxicity against human M193 cells assessed as reduction in cell viability measured after 72 hrs by Celltiter-Glo luminescent assay; type: functional, cell-based
[17] = Synergistic cytotoxicity against human M193 cells assessed as combination index at 20 uM measured after 72 hrs in presence of 6 mM sodium valproate by Celltiter-Glo luminescent assay based Chou-Talalay method; type: functional
[18] = Synergistic cytotoxicity against human M193 cells assessed as combination index at 20 uM measured after 72 hrs in presence of 4 mM sodium valproate by Celltiter-Glo luminescent assay based Chou-Talalay method; type: functional
[19] = Synergistic cytotoxicity against human M193 cells assessed as combination index at 20 uM measured after 72 hrs in presence of 0.8 mM sodium valproate by Celltiter-Glo luminescent assay based Chou-Talalay method; type: functional
[20] = Synergistic cytotoxicity against human M221 cells assessed as combination index at 20 uM measured after 72 hrs in presence of 0.8 mM sodium valproate by Celltiter-Glo luminescent assay based Chou-Talalay method; type: functional
[21] = Synergistic cytotoxicity against human M221 cells assessed as combination index at 20 uM measured after 72 hrs in presence of 0.2 mM sodium valproate by Celltiter-Glo luminescent assay based Chou-Talalay method; type: functional
[22] = Synergistic cytotoxicity against human M221 cells assessed as combination index at 20 uM measured after 72 hrs in presence of 0.05 mM sodium valproate by Celltiter-Glo luminescent assay based Chou-Talalay method; type: functional
[23] = Chemosensitization activity in human M221 cells assessed as reduction in cell viability at 20 uM measured after 72 hrs in presence of 0.8 mM sodium valproate by Celltiter-Glo luminescent assay relative to control; type: functional
[24] = Chemosensitization activity in human M221 cells assessed as reduction in cell viability at 20 uM measured after 72 hrs in presence of 200 nM sodium valproate by Celltiter-Glo luminescent assay relative to control; type: functional
[25] = Chemosensitization activity in human M221 cells assessed as reduction in cell viability at 20 uM measured after 72 hrs in presence of 50 nM sodium valproate by Celltiter-Glo luminescent assay relative to control; type: functional
[26] = Cytotoxicity against human M221 cells assessed as reduction in cell viability at 20 uM measured after 72 hrs by Celltiter-Glo luminescent assay relative to control; type: functional
[27] = Chemosensitization activity in human M193 cells assessed as reduction in cell viability at 20 uM measured after 72 hrs in presence of 0.8 mM sodium valproate by Celltiter-Glo luminescent assay relative to control; type: functional
[28] = Chemosensitization activity in human M193 cells assessed as reduction in cell viability at 20 uM measured after 72 hrs in presence of 4 mM sodium valproate by Celltiter-Glo luminescent assay relative to control; type: functional
[29] = Chemosensitization activity in human M193 cells assessed as reduction in cell viability at 20 uM measured after 72 hrs in presence of 6 mM sodium valproate by Celltiter-Glo luminescent assay relative to control; type: functional
M34 [30] = test: Upregulation of TMED7 mRNA level in human M34 cells by SYBR-green dye based qRT-PCR analysis; type: functional, cell-based
M34 [31] = test: Upregulation of PLOD2 mRNA level in human M34 cells by SYBR-green dye based qRT-PCR analysis; type: functional, cell-based
M34 [32] = test: Downregulation of XRCC5 mRNA level in human M34 cells by SYBR-green dye based qRT-PCR analysis; type: functional, cell-based
M34 [33] = test: Downregulation of NSUN5 mRNA level in human M34 cells by SYBR-green dye based qRT-PCR analysis; type: functional, cell-based
Homo sapiens [34] = species on record: Homo sapiens; test: Upregulation of TMED7 mRNA level in human M433 cells by SYBR-green dye based qRT-PCR analysis; type: functional, cell-based
Homo sapiens [35] = species on record: Homo sapiens; test: Upregulation of PLOD2 mRNA level in human M433 cells by SYBR-green dye based qRT-PCR analysis; type: functional, cell-based
Homo sapiens [36] = species on record: Homo sapiens; test: Downregulation of XRCC5 mRNA level in human M433 cells by SYBR-green dye based qRT-PCR analysis; type: functional, cell-based
Homo sapiens [37] = species on record: Homo sapiens; test: Downregulation of NSUN5 mRNA level in human M433 cells by SYBR-green dye based qRT-PCR analysis; type: functional, cell-based
Homo sapiens [38] = species on record: Homo sapiens; test: Upregulation of TMED7 mRNA level in human M2025 cells by SYBR-green dye based qRT-PCR analysis; type: functional, cell-based
Homo sapiens [39] = species on record: Homo sapiens; test: Upregulation of PLOD2 mRNA level in human M2025 cells by SYBR-green dye based qRT-PCR analysis; type: functional, cell-based
Homo sapiens [40] = species on record: Homo sapiens; test: Downregulation of XRCC5 mRNA level in human M2025 cells by SYBR-green dye based qRT-PCR analysis; type: functional, cell-based
Homo sapiens [41] = species on record: Homo sapiens; test: Downregulation of NSUN5 mRNA level in human M2025 cells by SYBR-green dye based qRT-PCR analysis; type: functional, cell-based
Homo sapiens [42] = species on record: Homo sapiens; test: Upregulation of TMED7 mRNA level in human M221 cells by SYBR-green dye based qRT-PCR analysis; type: functional, cell-based
Homo sapiens [43] = species on record: Homo sapiens; test: Upregulation of PLOD2 mRNA level in human M221 cells by SYBR-green dye based qRT-PCR analysis; type: functional, cell-based
Homo sapiens [44] = species on record: Homo sapiens; test: Downregulation of XRCC5 mRNA level in human M221 cells by SYBR-green dye based qRT-PCR analysis; type: functional, cell-based
Homo sapiens [45] = species on record: Homo sapiens; test: Downregulation of NSUN5 mRNA level in human M221 cells by SYBR-green dye based qRT-PCR analysis; type: functional, cell-based
Homo sapiens [46] = species on record: Homo sapiens; test: Upregulation of TMED7 mRNA level in human M193 cells by SYBR-green dye based qRT-PCR analysis; type: functional, cell-based
Homo sapiens [47] = species on record: Homo sapiens; test: Upregulation of PLOD2 mRNA level in human M193 cells by SYBR-green dye based qRT-PCR analysis; type: functional, cell-based
Homo sapiens [48] = species on record: Homo sapiens; test: Downregulation of XRCC5 mRNA level in human M193 cells by SYBR-green dye based qRT-PCR analysis; type: functional, cell-based
Homo sapiens [49] = species on record: Homo sapiens; test: Downregulation of NSUN5 mRNA level in human M193 cells by SYBR-green dye based qRT-PCR analysis; type: functional, cell-based
Homo sapiens [50] = species on record: Homo sapiens; test: Cytotoxicity against human M221 cells assessed as reduction in cell viability at 50 to 800 nM measured after 72 hrs by Celltiter-Glo luminescent assay; type: functional, cell-based
Homo sapiens [51] = species on record: Homo sapiens; test: Cytotoxicity against human M193 cells assessed as reduction in cell viability at 0.8 to 6 mM measured after 72 hrs by Celltiter-Glo luminescent assay; type: functional, cell-based

Question: Which Activity [1] does the source give for CSc1nc(Nc2cccc(Cl)c2)c2cnn(CCc3ccccc3)c2n1 here?
Answer: The Activity was 47%.

Question: And the IC50 [2]?
Answer: Its IC50 is 0.09 to 9.01 µM.

Question: And the IC50 [3]?
Answer: Its IC50 is 0.09 to 9.01 µM.

Question: And the IC50 [4]?
Answer: The IC50 was 0.09 to 9.01 µM.

Question: What about the IC50 [5] of the same compound?
Answer: Its IC50 is 0.09 to 9.01 µM.

Question: What about the IC50 [6] of the same compound?
Answer: Its IC50 is 0.09 to 9.01 µM.

Question: And the IC50 [7]?
Answer: The IC50 was 0.09 to 9.01 µM.

Question: And the IC50 [8]?
Answer: The IC50 was 0.09 to 9.01 µM.

Question: And the IC50 (M34 [9])?
Answer: The IC50 was 0.09 to 9.01 µM.

Question: And the IC50 [10]?
Answer: The IC50 was 0.09 to 9.01 µM.

Question: And the IC50 [11]?
Answer: The IC50 was 0.09 to 9.01 µM.

Question: What about the IC50 [12] of the same compound?
Answer: The IC50 was 0.09 to 9.01 µM.

Question: What about the IC50 [13] of the same compound?
Answer: The IC50 was 0.09 to 9.01 µM.

Question: And the IC50 [14]?
Answer: The IC50 was 0.09 to 9.01 µM.

Question: What about the IC50 [15] of the same compound?
Answer: Its IC50 is 0.09 to 9.01 µM.

Question: What about the IC50 [16] of the same compound?
Answer: Its IC50 is 0.09 to 9.01 µM.

Question: What about the CI [17] of the same compound?
Answer: The CI was 0.696.

Question: What about the CI [18] of the same compound?
Answer: The CI was 0.76.

Question: And the CI [19]?
Answer: Its CI is 0.835.

Question: What about the CI [20] of the same compound?
Answer: Its CI is 0.603.

Question: And the CI [21]?
Answer: The CI was 0.681.

Question: And the CI [22]?
Answer: The CI was 0.766.

Question: What about the Activity [23] of the same compound?
Answer: The Activity was 92%.

Question: What about the Activity [24] of the same compound?
Answer: Its Activity is 84%.

Question: What about the Activity [25] of the same compound?
Answer: Its Activity is 75%.

Question: And the Activity [26]?
Answer: Its Activity is 55%.

Question: What about the Activity [27] of the same compound?
Answer: Its Activity is 75%.

Question: What about the Activity [28] of the same compound?
Answer: Its Activity is 84%.

Question: What about the Activity [29] of the same compound?
Answer: Its Activity is 89%.

Question: And the Activity (M34 [30])?
Answer: The Activity was “Active”.

Question: And the Activity (M34 [31])?
Answer: The Activity was “Active”.

Question: What about the Activity (M34 [32]) of the same compound?
Answer: Its Activity is “Active”.

Question: What about the Activity (M34 [33]) of the same compound?
Answer: Its Activity is “Active”.

Question: What about the Activity (Homo sapiens [34]) of the same compound?
Answer: Its Activity is “Active”.

Question: And the Activity (Homo sapiens [35])?
Answer: The Activity was “Active”.

Question: And the Activity (Homo sapiens [36])?
Answer: Its Activity is “Active”.

Question: And the Activity (Homo sapiens [37])?
Answer: Its Activity is “Active”.

Question: And the Activity (Homo sapiens [38])?
Answer: The Activity was “Active”.

Question: And the Activity (Homo sapiens [39])?
Answer: Its Activity is “Active”.

Question: What about the Activity (Homo sapiens [40]) of the same compound?
Answer: The Activity was “Active”.

Question: What about the Activity (Homo sapiens [41]) of the same compound?
Answer: Its Activity is “Active”.

Question: And the Activity (Homo sapiens [42])?
Answer: Its Activity is “Active”.

Question: And the Activity (Homo sapiens [43])?
Answer: Its Activity is “Active”.

Question: And the Activity (Homo sapiens [44])?
Answer: Its Activity is “Active”.

Question: What about the Activity (Homo sapiens [45]) of the same compound?
Answer: The Activity was “Active”.

Question: And the Activity (Homo sapiens [46])?
Answer: The Activity was “Active”.

Question: And the Activity (Homo sapiens [47])?
Answer: Its Activity is “Active”.

Question: What about the Activity (Homo sapiens [48]) of the same compound?
Answer: The Activity was “Active”.

Question: What about the Activity (Homo sapiens [49]) of the same compound?
Answer: The Activity was “Active”.

Question: With CCCC(CCC)C(=O)O as the compound, how does the Activity (Homo sapiens [50]) read?
Answer: Its Activity is “inactive”.

Question: What about the Activity (Homo sapiens [51]) of the same compound?
Answer: The Activity was “inactive”.
